Measured values published in US6716827B1, “Complexes for immobilizing isothiocyanate natural precursors in cyclodextrins, preparation and use” (Commissariat a l'Energie Atomique, priority 1998, dated 2004).

Legend:
[1] = Solubility in aqueous solution of benzyl isothiocyanate formed by myrosinase in the α-cyclodextrin complex, followed by NMR; type: physicochemical; conditions: complexed in α-cyclodextrin; formed by action of myrosinase on the glucosinolate complex; 50 mM deuterated phosphate buffer pH 6, 25° C.
Procedure: In this example, the inclusion complex formed in example 1 is converted into an inclusion complex of benzyl isothiocyanate in the cyclodextrin.
For this purpose, myrosinase is added to the solution of the complex prepared in example 1, then hydrolysis of the glucosinolate is followed under nuclear magnetic resonance.
The results are given in FIGS. 4, 5 and 6 which illustrate the NMR spectra obtained at 25° C. and 500 MHz, before the addition of myrosinase (FIG. 4), 1 hour after the addition of myrosinase (FIG. 5), and 17 hours after the addition of myrosinase (FIG. 6).

[2] = Solubility in water of benzyl isothiocyanate; type: physicochemical; conditions: free compound, oily liquid

With `S=C=NCc1ccccc1` [benzyl isothiocyanate] the “solubility in an aqueous solution” value [1] was “soluble” and the solubility in water [2] was “insoluble in water”.
